Compound: Nc1ccn([C@@H]2O[C@H](CO)[C@@H](O)C2(F)F)c(=O)n1 [Gemcitabine] + Cc1cc(Nc2cc(N3CCN(C)CC3)nc(Sc3ccc(NC(=O)C4CC4)cc3)n2)n[nH]1 [Tozasertib] (partner 0.1 µM)
Assay: relative viability (nuclei count vs DMSO), 5 days (fraction); higher = more cells survive
Method in brief: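 Lung cancer cell lines in 1536-well plates were dosed by pin tool the day after seeding, either with one drug alone or with a fixed anchor-drug dose plus five library-drug doses (not always all listed) in √10 steps. After 5 days, cells were fixed and their nuclei stained in one step (final 0.05% Triton X-100, 1% formaldehyde, 1 ug/ml Hoechst), then counted on 4× images. Relative viability is the nuclei count in treated wells divided by that in vehicle wells. Values are medians of duplicate plates.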

| Cell Line | relative viability (first compound 0.001 µM) | relative viability (first compound 0.003162 µM) | relative viability (first compound 0.01 µM) | relative viability (first compound 0.03162 µM) | relative viability (first compound 0.1 µM) |
| --- | --- | --- | --- | --- | --- |
| 201T | 0.981 | 0.98 | 0.896 | 0.425 | 0.298 |
| A-427 | 0.189 | 0.19 | 0.135 | 0.13 | 0.121 |
| ABC-1 | 0.185 | – | 0.159 | 0.188 | 0.187 |
| BEN | 0.56 | 0.559 | 0.419 | 0.24 | 0.175 |
| CAL-12T | 0.292 | 0.35 | 0.29 | 0.22 | 0.129 |
| COR-L23 | 0.223 | 0.19 | 0.111 | 0.0883 | 0.0724 |
| COR-L 105 | 0.38 | 0.31 | 0.349 | 0.263 | 0.191 |
| ChaGo-K-1 | 0.217 | 0.216 | 0.184 | 0.181 | 0.155 |
| EKVX | 0.456 | 0.376 | 0.257 | 0.12 | 0.106 |
| EMC-BAC-2 | 0.269 | 0.32 | 0.26 | 0.176 | 0.155 |
| EPLC-272H | 0.291 | 0.295 | 0.249 | 0.0772 | 0.0692 |
| H3255 | 0.604 | 0.497 | 0.407 | 0.258 | 0.209 |
| HARA | 0.12 | 0.103 | 0.095 | 0.0811 | 0.042 |
| HCC-15 | 0.51 | 0.436 | 0.39 | 0.247 | 0.0632 |
| HCC-44 | 1.05 | 0.918 | 0.774 | 0.194 | 0.162 |
| HCC-78 | 0.448 | 0.37 | 0.147 | 0.198 | 0.164 |
| HCC-366 | 0.14 | 0.105 | 0.0801 | 0.0228 | 0.0235 |
| HCC-827 | 0.402 | 0.392 | 0.303 | 0.191 | 0.169 |
| HOP-62 | 0.392 | 0.285 | 0.0943 | 0.0841 | 0.0623 |
| LC-2-ad | 0.497 | 0.407 | 0.379 | 0.191 | 0.2 |
| LCLC-97TM1 | 0.253 | 0.244 | 0.156 | 0.123 | 0.134 |
| LCLC-103H | 0.491 | 0.399 | 0.395 | 0.176 | 0.139 |
| LK-2 | 0.162 | 0.157 | 0.21 | 0.183 | 0.165 |
| LOU-NH91 | 0.699 | 0.578 | 0.415 | 0.211 | 0.146 |

| Cell Line | relative viability (first compound 0.001 µM) | relative viability (first compound 0.003162 µM) | relative viability (first compound 0.01 µM) | relative viability (first compound 0.03162 µM) | relative viability (first compound 0.1 µM) |
| --- | --- | --- | --- | --- | --- |
| LU99A | 0.26 | 0.322 | 0.294 | 0.327 | 0.265 |
| LXF-289 | 0.254 | 0.199 | 0.111 | 0.0735 | 0.0697 |
| NCI-H23 | 0.688 | 0.225 | 0.114 | 0.129 | 0.114 |
| NCI-H322M | 0.459 | 0.407 | 0.288 | 0.316 | 0.283 |
| NCI-H358 | 0.086 | 0.081 | 0.0836 | 0.081 | 0.0743 |
| NCI-H441 | 0.569 | 0.394 | 0.25 | 0.196 | 0.197 |
| NCI-H460 | 0.535 | – | 0.299 | 0.0246 | 0.0096 |
| NCI-H520 | 0.422 | 0.446 | 0.316 | 0.208 | 0.239 |
| NCI-H596 | 0.922 | 0.589 | 0.391 | 0.306 | 0.223 |
| NCI-H647 | 0.395 | 0.098 | 0.0474 | 0.0387 | 0.0371 |
| NCI-H650 | 0.676 | 0.384 | 0.193 | 0.143 | 0.15 |
| NCI-H661 | 0.367 | 0.366 | 0.338 | 0.263 | 0.219 |
| NCI-H727 | 0.571 | 0.443 | 0.352 | 0.431 | 0.321 |
| NCI-H838 | 0.283 | 0.277 | 0.263 | 0.164 | 0.121 |
| NCI-H1355 | 0.508 | 0.393 | 0.189 | 0.18 | 0.169 |
| NCI-H1395 | 0.676 | 0.674 | 0.429 | 0.367 | 0.334 |
| NCI-H1437 | 0.447 | 0.418 | 0.347 | 0.297 | 0.156 |
| NCI-H1648 | 0.593 | – | 0.407 | 0.251 | 0.198 |
| NCI-H1650 | 0.507 | 0.348 | 0.273 | 0.119 | 0.113 |
| NCI-H1651 | 0.621 | 0.683 | 0.693 | 0.177 | 0.0714 |
| NCI-H1666 | 0.622 | 0.615 | 0.582 | 0.387 | 0.337 |
| NCI-H1734 | 0.243 | 0.264 | 0.125 | 0.104 | 0.105 |
| NCI-H1755 | 0.594 | 0.564 | 0.411 | 0.321 | 0.252 |
| NCI-H1793 | 0.421 | 0.507 | 0.202 | 0.133 | 0.12 |

| Cell Line | relative viability (first compound 0.001 µM) | relative viability (first compound 0.003162 µM) | relative viability (first compound 0.01 µM) | relative viability (first compound 0.03162 µM) | relative viability (first compound 0.1 µM) |
| --- | --- | --- | --- | --- | --- |
| NCI-H1915 | 0.461 | 0.462 | 0.397 | 0.317 | 0.193 |
| NCI-H1944 | 0.253 | 0.266 | 0.251 | 0.188 | 0.105 |
| NCI-H1975 | 0.892 | 0.561 | 0.256 | 0.132 | 0.0954 |
| NCI-H1993 | 0.54 | 0.633 | 0.619 | 0.494 | 0.531 |
| NCI-H2009 | 0.854 | 0.65 | 0.24 | 0.163 | 0.11 |
| NCI-H2023 | 0.409 | 0.385 | 0.233 | 0.101 | 0.0648 |
| NCI-H2085 | 0.729 | 0.858 | 0.731 | 0.562 | 0.443 |
| NCI-H2087 | 0.31 | 0.204 | 0.139 | 0.0946 | 0.0735 |
| NCI-H2126 | 0.866 | 0.802 | 0.756 | 0.471 | 0.245 |
| NCI-H2170 | 0.824 | 0.735 | 0.469 | 0.154 | 0.134 |
| NCI-H2228 | 0.278 | 0.209 | 0.154 | 0.108 | 0.115 |
| NCI-H2342 | 0.456 | 0.451 | 0.427 | 0.279 | 0.268 |
| NCI-H2347 | 0.563 | 0.547 | 0.484 | 0.29 | 0.259 |
| NCI-H2405 | 0.812 | 0.709 | 0.495 | 0.221 | 0.216 |
| NCI-H3122 | 0.428 | 0.365 | 0.222 | 0.106 | 0.0862 |
| PC-3 [JPC-3] | 0.902 | 0.796 | 0.666 | 0.264 | 0.237 |
| PC-14 | 0.579 | 0.275 | 0.078 | 0.0297 | 0.0356 |
| RERF-LC-KJ | 0.596 | 0.543 | 0.578 | 0.323 | 0.229 |
| SK-LU-1 | 0.303 | 0.207 | 0.131 | 0.145 | 0.14 |
| SK-MES-1 | 0.691 | 0.305 | 0.197 | 0.147 | 0.126 |
| SW 900 | 0.462 | 0.241 | 0.127 | 0.0969 | 0.109 |
| SW 1573 | 0.189 | 0.165 | 0.0964 | 0.0589 | 0.0466 |
| UMC-11 | 0.197 | 0.162 | 0.221 | 0.211 | 0.215 |

Reference: the supplement of paper PMC10307832
